# According to ChEMBL document CHEMBL4414648, “Novel Benzohydroxamate-Based Potent and Selective Histone Deacetylase 6 (HDAC6) Inhibitors Bearing a Pentaheterocyclic Scaffold: Design, Synthesis, and Biological Evaluation” (J Med Chem, 2019):
# Calls of active or inactive are those of the source. The calls are words filed in the database; no cut-off is given here.
# Experiments:
# Mus musculus [1] = assay: In vivo inhibition of HDAC6 in C57BL/6 mouse assessed as increase in acetylated tubulin level in spleen cytosolic protein extract at 30 mg/kg, ip measured after 24 hrs by ELISA; assay type: functional, organism-based
# [2] = Drug level in C57BL/6 mouse plasma at 30 mg/kg, ip measured after 24 hrs; assay type: ADME, organism-based; details: in vivo, BLD = below limit of detection
# Mus musculus [3] = assay: Ratio of in vivo inhibition of HDAC6 in C57BL/6 mouse assessed as fold increase in acetylated tubulin level in spleen cytosolic protein extract to in vivo inhibition of HDAC in C57BL/6 mouse assessed as fold increase in acetylated-histone H3 level in spleen nuclear protein extracts
# [4] = Toxicity in C57BL/6 mouse assessed as effect on platelet level at 10 mg/kg, ip administered for 5 days/week for two cycles and measured 60 mins post last dose by cell counter method relative to control; assay type: organism-based; details: in vivo, 1 h
# [5] = target: T1, Protein deacetylase HDAC6 (Mus musculus) (UniProt Q9Z2V5); assay: Inhibition of HDAC6 in C57BL/6 mouse regulatory T cells assessed as increase in Treg-mediated suppression of anti-CD3 induced CD4+ cell division at 1 uM after 72 hrs in presence mitomycin-treated APC by CFSE dye based flow cytometric assay relative to control
# T1 sequence (whole entry): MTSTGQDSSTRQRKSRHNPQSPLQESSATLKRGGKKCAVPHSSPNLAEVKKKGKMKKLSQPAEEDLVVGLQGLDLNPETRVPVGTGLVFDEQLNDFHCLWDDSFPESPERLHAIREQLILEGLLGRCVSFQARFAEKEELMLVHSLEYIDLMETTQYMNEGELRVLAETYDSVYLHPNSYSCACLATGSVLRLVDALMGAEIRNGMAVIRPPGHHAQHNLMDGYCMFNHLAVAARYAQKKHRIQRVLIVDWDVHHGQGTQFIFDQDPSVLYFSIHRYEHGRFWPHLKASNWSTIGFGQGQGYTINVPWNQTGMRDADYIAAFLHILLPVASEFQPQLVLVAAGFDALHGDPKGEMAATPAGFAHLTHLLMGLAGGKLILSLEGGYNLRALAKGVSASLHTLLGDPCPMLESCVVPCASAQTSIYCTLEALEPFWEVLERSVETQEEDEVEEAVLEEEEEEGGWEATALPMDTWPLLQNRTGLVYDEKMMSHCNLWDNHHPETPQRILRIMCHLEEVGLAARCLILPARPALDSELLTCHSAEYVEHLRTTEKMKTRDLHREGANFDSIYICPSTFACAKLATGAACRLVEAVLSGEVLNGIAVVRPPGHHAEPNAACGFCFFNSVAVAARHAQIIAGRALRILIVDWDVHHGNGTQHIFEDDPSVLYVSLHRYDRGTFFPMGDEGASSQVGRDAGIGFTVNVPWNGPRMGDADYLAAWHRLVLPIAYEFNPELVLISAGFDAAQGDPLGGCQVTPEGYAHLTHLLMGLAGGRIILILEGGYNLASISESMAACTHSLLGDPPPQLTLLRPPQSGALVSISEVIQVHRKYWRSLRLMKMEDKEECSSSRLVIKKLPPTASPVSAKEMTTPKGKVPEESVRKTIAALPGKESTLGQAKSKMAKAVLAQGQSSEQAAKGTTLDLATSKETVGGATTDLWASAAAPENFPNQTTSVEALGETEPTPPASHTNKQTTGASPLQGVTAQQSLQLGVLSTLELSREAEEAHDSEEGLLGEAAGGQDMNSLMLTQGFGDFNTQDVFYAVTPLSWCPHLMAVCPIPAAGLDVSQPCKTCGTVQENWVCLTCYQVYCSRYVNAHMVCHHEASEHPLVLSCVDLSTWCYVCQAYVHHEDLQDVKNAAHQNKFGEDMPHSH
structure (smiles),measurement,setting,value
Cn1c(Sc2ccc(C(=O)NO)cc2)nnc1-c1cccs1,inhibition,Mus musculus [1],Active
same,Drug uptake,[2],Bld
same,Ratio,Mus musculus [3],3.5
same,Activity,[4],-11%
same,fold change (FC),[5],3.4
